According to US8791100B2 (Novartis AG, priority 2010, dated 2014):

Assays:
[1] = molecular target: human S1P1 receptors (Homo sapiens (Human), UniProt P21453); assay: Human S1P1 Receptor Calcium FLIPR Antagonist Assay (HeLa Gα16 S1P1); assay type: cell-based; conditions: relative antagonism vs probing agonist GNF-AC-1 at EC80, HeLa-S1P1/Gα16 cells
Excerpt: Human S1P1 Receptor Calcium FLIPR Antagonist Assay
The assay measures intracellular changes of Ca^2+ mediated by the synthetic probing agonist 3-{[2-(2-Trifluoromethyl-biphenyl-4-yl)-benzo[b]thiophen-5-ylmethyl]-amino}-propionic acid (GNF-AC-1) in the HeLa-S1P1/Gα16 cell clone 1: HeLa (human cervix carcinoma, ATCC CCL2) cells stably expressing N-terminally myc-tagged human S1P1 receptors (GenBank™ accession No. NM_001400; UNIPROT P21453) and promiscuous Gα16 protein (GenBank™ accession number M63904, Swissprot P30679) are cultured at 37° C., 5% CO2, and 95% relative humidity. The cells are plated in 384 well black plates (10′000 cells per well). After 24 hours the cells are loaded with Fluo-4-AM (1.6 μM in HBSS and 2.5 mM probenicid) for 1 hour at 37° C. After washing, the cells are transferred to the FLIPR. The test compounds are added at different concentrations (≦100 μM) in HBSS in the presence of 0.1% BSA and changes in fluorescence are recorded (indication of agonism). The probing agonist is added 20-30 minutes afterwards to the wells at a concentration giving 80% of the maximal activity (EC80). After each addition, time points are collected as follows: 20 time points (2 seconds) before the addition of the agonist (Fmin) and 60 time points (1 or 2 seconds) after the addition of the probing agonist. This allows the determination of the maximal fluorescence (Fmax). The ratio (Fmax−Fmin)/Fmin is plotted against the log of the concentration of the test compounds and the IC50 (relative antagonism) is calculated using the XLfit-4 software. […] A concentration-response curve of the probing agonist is determined on each plate in parallel.

[2] = tested on: peripheral lymphocyte counts; assay: Measurement of circulating lymphocytes after oral administration (mice); assay type: in vivo; conditions: Mus musculus, C57BL/6NCrl mice, 30 mg/kg p.o., 24 hours, vs mean counts of untreated animals, mean ± STDEV, read-out: Residual Lymphocyte Counts 24 hours after p.o. dosing
Description: (§1) The compounds of the invention, e.g. compounds of formula (I) typically induce the depletion of blood lymphocyte as may be determined in the assay described below. Moreover, compounds of the invention, e.g. compounds of formula (I) are typically efficacious in the said assay also when administered via the per oral route of administration.
(§2) Measurement of Circulating Lymphocytes:
(§3) The test compounds (or salts thereof) are dissolved in a vehicle such as water, saline, PEG (polyethylene glycol) 200, or PBS (phosphate buffered saline). Adult mice (C57BU6NCrl strain, female, 18-20 g) or rats (Lewis strain, male, 6-12 weeks old) are administered up to 60 mg/kg of the test compounds in 10 ml/kg (C57BU6NCrl mice) or 2 ml/kg (Lewis rats) vehicle via per oral application. The vehicle or a reference salt and FTY720 (0.3 mg/kg) are used as negative and positive controls, respectively. Blood is collected from the sublingual vein at single time points, e.g. 14 or 24 hours after the test compound administration, under short isoflurane anesthesia. Two to three animals are used in each group. Whole blood samples are subjected to hematology analysis. Peripheral lymphocyte counts are determined using an automated analyzer. The Haemathology System uses a combination of light scatter, cytochemical staining and nuclear density on two independent channels to measure the total and differential white cell counts. The reduction of lymphocytes provoked by each test compound is calculated by comparing the lymphocyte counts measured after each treatment to the mean lymphocyte counts measured in five to eight untreated mice or rats, respectively. The data are presented as mean±STDEV.

[3] = tested on: peripheral lymphocyte counts; assay: Measurement of circulating lymphocytes after oral administration (rats); assay type: in vivo; conditions: Lewis rats, 30 mg/kg p.o., vs mean counts of untreated animals, mean ± STDEV
Description: as §1, §2, §3

human S1P1 receptors, sequence (P21453 whole entry): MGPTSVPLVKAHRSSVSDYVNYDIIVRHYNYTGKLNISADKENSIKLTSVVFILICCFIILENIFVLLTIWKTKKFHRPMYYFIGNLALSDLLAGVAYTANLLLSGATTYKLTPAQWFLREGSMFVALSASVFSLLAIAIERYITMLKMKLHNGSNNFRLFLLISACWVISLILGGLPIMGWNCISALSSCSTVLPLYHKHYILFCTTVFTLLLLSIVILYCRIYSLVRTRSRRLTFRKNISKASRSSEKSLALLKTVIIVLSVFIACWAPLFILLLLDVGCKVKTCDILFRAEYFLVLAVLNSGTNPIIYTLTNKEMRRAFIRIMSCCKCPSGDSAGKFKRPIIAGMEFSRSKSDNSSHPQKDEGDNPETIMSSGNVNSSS

Row | SMILES | IC50 [1] [nM] | response vs control in vivo at 30 mg/kg [2] [%] | Residual Lymphocyte Counts 24 hours after p.o. dosing [3]
1 | Cc1cc([C@H](Nc2ccc(C)c(CN3CC[C@@H](C(=O)O)C3)c2C)C(F)(F)F)ccc1Cl [Example 30, (R)-1-{3-[(S)-1-(4-Chloro-3-methyl-phenyl)-2,2,2-trifluoro-ethylamino]-2,6-dimethyl-benzyl}-pyrrolidine-3-carboxylic acid] | 0.9 | 19.4 | 26.9 ± 13.0%
2 | CC[C@@H](Nc1ccc(C)c(CN2CC[C@@H](C(=O)O)C2)c1)c1cc(C)c(Cl)c(C)c1 [Example 42, (R)-1-{5-[(R)-1-(4-Chloro-3,5-dimethyl-phenyl)-propylamino]-2-methyl-benzyl}-pyrrolidine-3-carboxylic acid] | 1 | 19.4 | 22.2% ± 6.7
3 | CC[C@@H](Nc1cc(CN2CC[C@@H](C(=O)O)C2)c(Cl)cn1)c1ccc(Cl)c(C)c1 [Example 55, (R)-1-{5-Chloro-2-[(R)-1-(4-chloro-3-methyl-phenyl)-propylamino]-pyridin-4-ylmethyl}-pyrrolidine-3-carboxylic acid] | 0.5 | 43.6 | –
4 | CC[C@@H](Nc1ccc(Cl)c(CN2CC(C(=O)O)C2)c1)c1ccc(Cl)c(C)c1 [Example 62, 1-{2-Chloro-5-[(R)-1-(4-chloro-3-methyl-phenyl)-propylamino]-benzyl}-azetidine-3-carboxylic acid] | 0.9 | 31.5 | –
5 | Cc1cc([C@H](Nc2ccc(Cl)c(CN3CC(C)(C(=O)O)C3)c2)C(F)(F)F)ccc1Cl [Example 65, 1-{2-Chloro-5-[(S)-1-(4-chloro-3-methyl-phenyl)-2,2,2-trifluoro-ethylamino]-benzyl}-3-methyl-azetidine-3-carboxylic acid] | 0.2 | 22.6 | –
6 | Cc1cc([C@H](Nc2ccc(C)c(CN3CC(C(=O)O)C3)c2)C(F)(F)F)ccc1Cl [Example 70, 1-{5-[(S)-1-(4-Chloro-3-methyl-phenyl)-2,2,2-trifluoro-ethylamino]-2-methyl-benzyl}-azetidine-3-carboxylic acid] | 0.1 | 20.2 | –
7 | Cc1cc([C@H](Nc2cc(CNCCC(=O)O)c(Cl)cn2)C(F)(F)F)ccc1Cl [Example 85, 3-({5-Chloro-2-[(S)-1-(4-chloro-3-methyl-phenyl)-2,2,2-trifluoro-ethylamino]-pyridin-4-ylmethyl}-amino)-propionic acid] | 0.9 | – | 11.6% ± 0.3

Second part, led by results:

Row | IC50 [1] [nM] | SMILES | response vs control in vivo at 30 mg/kg [2] [%] | Residual Lymphocyte Counts 24 hours after p.o. dosing [3]
8 | 0.8 | CCc1ccc(N[C@@H](c2ccc(Cl)c(C)c2)C(F)(F)F)cc1CN1CC[C@@H](C(=O)O)C1 [Example 34, (R)-1-{5-[(S)-1-(4-Chloro-3-methyl-phenyl)-2,2,2-trifluoro-ethylamino]-2-ethyl-benzyl}-pyrrolidine-3-carboxylic acid] | 24.2 | –
9 | 1.3 | CC[C@@H](Nc1ccc(C)c(CN2CC(C(=O)O)C2)c1)c1cc(C)c(Cl)c(C)c1 [Example 41, 1-{5-[(R)-1-(4-Chloro-3,5-dimethyl-phenyl)-propylamino]-2-methyl-benzyl}-azetidine-3-carboxylic acid] | 20.2 | –
10 | 0.8 | CC[C@@H](Nc1ccc(Cl)c(CN2CC[C@@H](C(=O)O)C2)c1)c1cc(C)c(Cl)c(C)c1 [Example 43, (R)-1-{2-Chloro-5-[(R)-1-(4-chloro-3,5-dimethyl-phenyl)-propylamino]-benzyl}-pyrrolidine-3-carboxylic acid] | 21.8 | –
11 | 1.6 | CC[C@@H](Nc1ccc(Cl)c(CN2CC(C(=O)O)C2)c1)c1cc(C)c(Cl)c(C)c1 [Example 61, 1-{2-Chloro-5-[(R)-1-(4-chloro-3,5-dimethyl-phenyl)-propylamino]-benzyl}-azetidine-3-carboxylic acid] | 16.2 | –
12 | 0.4 | Cc1cc([C@H](Nc2cc(CN3CC[C@@H](C(=O)O)C3)c(Cl)cn2)C(F)(F)F)ccc1Cl [Example 84, (R)-1-{5-Chloro-2-[(S)-1-(4-chloro-3-methyl-phenyl)-2,2,2-trifluoro-ethylamino]-pyridin-4-ylmethyl}-pyrrolidine-3-carboxylic acid] | – | 16.8% ± 7.2
